Experimental data: patent US12077503B2, “Substituted cyclic amides and their use as herbicides” (FMC CORPORATION, priority 2015, dated 2024)

What was measured:
Type in all cases: in vivo
corn (Zea mays) [1] = assay: Test G Pre-Emergence Protocol; settings: evaluated after 13 days
In short: (§1)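 Seeds were sown in standard soil and kept one day in a glasshouse (24/16° C day/night, 14 h light, 65% humidity), then sprayed with compound in acetone/water (50:50) containing 0.5% Tween 20 at 15.625, 62.5 or 250 g/ha. Damage was scored after 13 days (0 = none, 100 = total).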

[2] = system: barnyardgrass (Echinochloa crus-galli); assay: Test G Pre-Emergence Protocol; settings: Echinochloa crus-galli, pre-emergence, 312 h, evaluated after 13 days
In short: as §1

[3] = system: giant foxtail (Setaria faberi); assay: Test G Pre-Emergence Protocol; settings: Setaria faberi, pre-emergence, 312 h, evaluated after 13 days
In short: as §1

[4] = system: velvetleaf (Abutilon theophrasti); assay: Test G Pre-Emergence Protocol; settings: evaluated after 13 days
In short: as §1

[5] = system: ivy-leaved morning glory (Ipomoea hederacea); assay: Test G Pre-Emergence Protocol; settings: evaluated after 13 days
In short: as §1

[6] = system: redroot pigweed (Amaranthus retroflexus); assay: Test G Pre-Emergence Protocol; settings: evaluated after 13 days
In short: as §1

corn (Zea mays) [7] = assay: Test G Post-Emergence Protocol; settings: Zea mays, post-emergence, 312 h, read-out: Corn damage rating
In short: (§2)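 A glasshouse post-emergence test: 8-day-old plants sprayed at 15.625, 62.5 or 250 g/ha, then grown at 24/16 °C day/night with 14 h light and 65% humidity. Damage rated 13 days later, 0–100.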

[8] = system: barnyardgrass (Echinochloa crus-galli); assay: Test G Post-Emergence Protocol; settings: Echinochloa crus-galli, post-emergence, 312 h, read-out: Barnyardgrass damage rating
In short: as §2

[9] = system: giant foxtail (Setaria faberi); assay: Test G Post-Emergence Protocol; settings: Setaria faberi, post-emergence, 312 h, read-out: Foxtail, Giant damage rating
In short: as §2

[10] = system: velvetleaf (Abutilon theophrasti); assay: Test G Post-Emergence Protocol; settings: Abutilon theophrasti, post-emergence, 312 h, read-out: Velvetleaf damage rating
In short: as §2

[11] = system: ivy-leaved morning glory (Ipomoea hederacea); assay: Test G Post-Emergence Protocol; settings: Ipomoea, post-emergence, 312 h, read-out: Morningglory, Ivy-leaved damage rating
In short: as §2

[12] = system: redroot pigweed (Amaranthus retroflexus); assay: Test G Post-Emergence Protocol; settings: Amaranthus retroflexus, post-emergence, 312 h, read-out: Pigweed, Redroot damage rating
In short: as §2

[13] = 15.625 g ai/ha, evaluated after 13 days (100=total damage to plant; 0=no damage to plant)
[14] = 62.5 g ai/ha, evaluated after 13 days, 100=total damage to plant, 0=no damage to plant
[15] = 250 g ai/ha, evaluated after 13 days, 100=total damage to plant, 0=no damage to plant

Question: What does the source list for COc1c(Cl)ccc([C@H]2CN(C)C(=O)[C@@H]2C(=O)Nc2cccc(F)c2F)c1F [Compound 1773]?
Answer: Corn damage rating (100=total damage to plant; 0=no damage to plant) (corn (Zea mays) [1]; 15.625 g ai/ha): 70; Corn damage rating (100=total damage to plant; 0=no damage to plant) (corn (Zea mays) [1]; 250 g ai/ha): 80; plant injury at 62.5 g/ha (corn (Zea mays) [1]; Zea mays, pre-emergence, 312 h, 62.5 g ai/ha, 100=total damage to plant, 0=no damage to plant, read-out: Corn damage rating): 80%; pest or weed control at 15.625 g/ha ([2]; 15.625 g ai/ha, read-out: Barnyardgrass damage rating (100=total damage to plant; 0=no damage to plant)): 90%; pest or weed control at 62.5 g/ha ([2]; 62.5 g ai/ha, 100=total damage to plant, 0=no damage to plant, read-out: Barnyardgrass damage rating): 90%; pest or weed control at 250 g/ha ([2]; 250 g ai/ha, read-out: Barnyardgrass damage rating (100=total damage to plant; 0=no damage to plant)): 90%; pest or weed control at 15.625 g/ha ([3]; 15.625 g ai/ha, read-out: Foxtail, Giant damage rating (100=total damage to plant; 0=no damage to plant)): 90%; pest or weed control at 62.5 g/ha ([3]; 62.5 g ai/ha, 100=total damage to plant, 0=no damage to plant, read-out: Foxtail, Giant damage rating): 90%; pest or weed control at 250 g/ha ([3]; 250 g ai/ha, read-out: Foxtail, Giant damage rating (100=total damage to plant; 0=no damage to plant)): 90%; Velvetleaf damage rating (100=total damage to plant; 0=no damage to plant) ([4]; 15.625 g ai/ha): 10; Velvetleaf damage rating (100=total damage to plant; 0=no damage to plant) ([4]; 250 g ai/ha): 60; pest or weed control at 62.5 g/ha ([4]; Abutilon theophrasti, pre-emergence, 312 h, 62.5 g ai/ha, 100=total damage to plant, 0=no damage to plant, read-out: Velvetleaf damage rating): 30%; Morningglory, Ivy-leaved damage rating (100=total damage to plant; 0=no damage to plant) ([5]; 250 g ai/ha): 80; pest or weed control at 15.625 g/ha ([5]; Ipomoea, pre-emergence, 312 h, 15.625 g ai/ha, read-out: Morningglory, Ivy-leaved damage rating (100=total damage to plant; 0=no damage to plant)): 0%; pest or weed control at 62.5 g/ha ([5]; Ipomoea, pre-emergence, 312 h, 62.5 g ai/ha, 100=total damage to plant, 0=no damage to plant, read-out: Morningglory, Ivy-leaved damage rating): 60%; Pigweed, Redroot damage rating (100=total damage to plant; 0=no damage to plant) ([6]; 15.625 g ai/ha): 20; Pigweed, Redroot damage rating (100=total damage to plant; 0=no damage to plant) ([6]; 250 g ai/ha): 70; pest or weed control at 62.5 g/ha ([6]; Amaranthus retroflexus, pre-emergence, 312 h, 62.5 g ai/ha, 100=total damage to plant, 0=no damage to plant, read-out: Pigweed, Redroot damage rating): 20%; plant injury at 15.625 g/ha (corn (Zea mays) [7]; [13]): 70%; plant injury at 62.5 g/ha (corn (Zea mays) [7]; [14]): 80%; plant injury at 250 g/ha (corn (Zea mays) [7]; [15]): 80%; pest or weed control at 15.625 g/ha [8, 13]: 80%; pest or weed control at 62.5 g/ha [8, 14]: 80%; pest or weed control at 250 g/ha [8, 15]: 80%; pest or weed control at 15.625 g/ha [9, 13]: 80%; pest or weed control at 62.5 g/ha [9, 14]: 80%; pest or weed control at 250 g/ha [9, 15]: 80%; pest or weed control at 15.625 g/ha [10, 13]: 0%; pest or weed control at 62.5 g/ha [10, 14]: 20%; pest or weed control at 250 g/ha [10, 15]: 40%; pest or weed control at 15.625 g/ha [11, 13]: 20%; pest or weed control at 62.5 g/ha [11, 14]: 10%; pest or weed control at 250 g/ha [11, 15]: 60%; pest or weed control at 15.625 g/ha [12, 13]: 20%; pest or weed control at 62.5 g/ha [12, 14]: 20%; pest or weed control at 250 g/ha [12, 15]: 40%
